Test [1] has as its target Large T antigen (Simian virus 40, UniProt P03070). It counts as functional, Betapolyomavirus macacae.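 Further: Confirmatory-stage PubChem screen for compounds that inhibit SV40 T antigen.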
The target in test [2] is T1, Mannose-6-phosphate isomerase (Homo sapiens, UniProt P34949).
T1 sequence (P34949 whole entry): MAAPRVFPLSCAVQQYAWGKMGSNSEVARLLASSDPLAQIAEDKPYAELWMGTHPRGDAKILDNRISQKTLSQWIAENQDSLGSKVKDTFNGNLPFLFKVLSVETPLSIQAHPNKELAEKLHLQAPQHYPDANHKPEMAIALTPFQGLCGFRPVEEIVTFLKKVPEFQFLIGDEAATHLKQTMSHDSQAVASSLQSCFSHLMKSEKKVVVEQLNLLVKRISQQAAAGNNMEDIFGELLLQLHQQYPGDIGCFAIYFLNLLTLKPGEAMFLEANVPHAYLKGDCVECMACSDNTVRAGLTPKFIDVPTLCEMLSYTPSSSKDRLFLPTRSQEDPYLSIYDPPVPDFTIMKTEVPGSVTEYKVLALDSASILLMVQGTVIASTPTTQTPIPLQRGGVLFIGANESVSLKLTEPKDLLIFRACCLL
Description: inhibitors of human PMI, primary screen, biochemical, fluorescence intensity, coupled assay (AID 1209).

Test [3] has as its target T1, Mannose-6-phosphate isomerase. Nature of the test: human PMI inhibitors, high substrate, primary screen, biochemical, fluorescence intensity, high mannose 6-phosphate (AID 1220).
Test [4] concerns the target T2, Polyadenylate-binding protein 1 (Homo sapiens, UniProt P11940). Description: PABP1 MLLE–PAM2 interaction inhibitors, dose response, miRNA deadenylation inhibitor project, biochemical, fluorescence polarization, Cy5-PAM2 peptide, secondary (AID 602260). It counts as functional. The settings on record: read-out: IC50_Mean. (In general: Fluorescence polarisation rises when a labelled molecule tumbles more slowly, as on binding a larger partner.)

Test [5] deals with T2, Polyadenylate-binding protein 1. Description: PABP1 MLLE–PAM2 binding inhibitor potency, dose response, biochemical, fluorescence polarization, FITC-PAM2 peptide (AID 602259). It counts as functional. The following applies: read-out: IC50_Mean.
Test [6] addresses T3, Rac GTPase-activating protein 1 (Homo sapiens, UniProt Q9H0H5).
T3 sequence (Q9H0H5 whole entry): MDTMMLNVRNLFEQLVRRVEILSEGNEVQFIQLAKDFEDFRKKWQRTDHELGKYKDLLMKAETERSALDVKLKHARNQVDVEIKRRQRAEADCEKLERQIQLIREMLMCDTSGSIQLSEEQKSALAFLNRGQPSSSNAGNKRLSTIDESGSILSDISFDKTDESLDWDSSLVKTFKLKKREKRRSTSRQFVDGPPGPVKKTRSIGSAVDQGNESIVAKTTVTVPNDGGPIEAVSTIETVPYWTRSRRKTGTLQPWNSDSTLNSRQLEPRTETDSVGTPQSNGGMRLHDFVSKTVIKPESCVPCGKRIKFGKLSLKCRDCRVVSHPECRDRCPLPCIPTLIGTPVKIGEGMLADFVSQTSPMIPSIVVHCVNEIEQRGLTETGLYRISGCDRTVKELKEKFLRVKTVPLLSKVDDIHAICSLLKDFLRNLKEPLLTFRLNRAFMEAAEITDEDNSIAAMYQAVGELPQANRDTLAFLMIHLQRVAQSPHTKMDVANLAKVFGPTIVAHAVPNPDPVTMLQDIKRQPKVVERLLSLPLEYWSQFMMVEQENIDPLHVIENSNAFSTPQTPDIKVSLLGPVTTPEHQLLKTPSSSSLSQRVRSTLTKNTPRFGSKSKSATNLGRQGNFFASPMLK
Nature of the test: MgcRacGAP GTPase-activating activity inhibitors, confirmation, biochemical, ADP Hunter fluorescence, primary and confirmatory (AID 624330). It counts as functional.

Test [7] deals with Glyceraldehyde-3-phosphate dehydrogenase (Homo sapiens, UniProt P04406).
Test [8] concerns the target T4, Aminopeptidase N (Plasmodium falciparum FcB1/Columbia, UniProt O96935).
T4 sequence (O96935 whole entry): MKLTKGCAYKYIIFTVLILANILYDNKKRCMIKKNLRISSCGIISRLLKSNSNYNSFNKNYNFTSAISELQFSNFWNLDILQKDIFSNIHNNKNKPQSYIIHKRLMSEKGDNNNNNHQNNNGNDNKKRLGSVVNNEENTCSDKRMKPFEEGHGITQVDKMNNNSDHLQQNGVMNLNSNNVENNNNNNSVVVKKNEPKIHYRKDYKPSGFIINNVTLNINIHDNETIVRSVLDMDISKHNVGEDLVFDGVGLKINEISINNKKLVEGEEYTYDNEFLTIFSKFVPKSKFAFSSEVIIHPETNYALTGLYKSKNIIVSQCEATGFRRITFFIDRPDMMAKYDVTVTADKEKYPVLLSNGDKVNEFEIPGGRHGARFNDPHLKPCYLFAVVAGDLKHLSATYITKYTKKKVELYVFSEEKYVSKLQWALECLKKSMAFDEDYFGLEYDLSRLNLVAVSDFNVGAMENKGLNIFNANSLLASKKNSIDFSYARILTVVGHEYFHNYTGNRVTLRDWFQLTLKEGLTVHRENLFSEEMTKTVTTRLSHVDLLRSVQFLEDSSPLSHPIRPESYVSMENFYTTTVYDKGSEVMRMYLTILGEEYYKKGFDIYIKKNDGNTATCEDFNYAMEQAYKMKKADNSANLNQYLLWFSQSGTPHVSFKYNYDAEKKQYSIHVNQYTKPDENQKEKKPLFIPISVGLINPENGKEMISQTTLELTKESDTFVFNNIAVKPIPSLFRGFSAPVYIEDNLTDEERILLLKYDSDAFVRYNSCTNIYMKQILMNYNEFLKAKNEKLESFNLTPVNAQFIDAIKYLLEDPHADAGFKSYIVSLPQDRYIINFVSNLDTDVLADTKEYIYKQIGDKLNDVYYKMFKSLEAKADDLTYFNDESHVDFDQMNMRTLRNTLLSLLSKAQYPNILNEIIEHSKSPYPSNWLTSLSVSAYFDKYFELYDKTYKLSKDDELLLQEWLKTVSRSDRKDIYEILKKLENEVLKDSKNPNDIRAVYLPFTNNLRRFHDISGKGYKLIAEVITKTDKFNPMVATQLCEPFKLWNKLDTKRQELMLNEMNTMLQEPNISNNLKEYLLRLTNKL
Description: P. falciparum M1AAP inhibitors, biochemical, fluorogenic H-Leu-NHMec substrate, 1536-well (AID 1445). Further details: species or system Plasmodium falciparum 3D7, 3D7.

The target in test [9] is Induced myeloid leukemia cell differentiation protein Mcl-1 (Homo sapiens, UniProt Q07820). It counts as functional.
In test [10] the test system is Streptococcus sp. 'group A'. Nature of the test: growth inhibition of control SK(-) GAS strain, dose response, counter-screen for streptokinase expression inhibitor project, luminescence, kanamycin, BacTiterGlo, confirmation (AID 1900). It counts as functional, organism-based. On the technique in general: The purpose of a counterscreen is to sort out artefacts and off-target activity.

Test [11] deals with Streptococcus. Description: Group A Streptococcus viability loss, dose response, counter-screen for streptokinase expression inhibitor project, luminescence, BacTiterGlo (AID 1915).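 Further: potency for reduction of bacterial viability or growth.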 It counts as functional, organism-based.
For test [12], the target named is T5, Short transient receptor potential channel 4 (Mus musculus, UniProt Q9QUQ5).
T5 sequence (Q9QUQ5 whole entry): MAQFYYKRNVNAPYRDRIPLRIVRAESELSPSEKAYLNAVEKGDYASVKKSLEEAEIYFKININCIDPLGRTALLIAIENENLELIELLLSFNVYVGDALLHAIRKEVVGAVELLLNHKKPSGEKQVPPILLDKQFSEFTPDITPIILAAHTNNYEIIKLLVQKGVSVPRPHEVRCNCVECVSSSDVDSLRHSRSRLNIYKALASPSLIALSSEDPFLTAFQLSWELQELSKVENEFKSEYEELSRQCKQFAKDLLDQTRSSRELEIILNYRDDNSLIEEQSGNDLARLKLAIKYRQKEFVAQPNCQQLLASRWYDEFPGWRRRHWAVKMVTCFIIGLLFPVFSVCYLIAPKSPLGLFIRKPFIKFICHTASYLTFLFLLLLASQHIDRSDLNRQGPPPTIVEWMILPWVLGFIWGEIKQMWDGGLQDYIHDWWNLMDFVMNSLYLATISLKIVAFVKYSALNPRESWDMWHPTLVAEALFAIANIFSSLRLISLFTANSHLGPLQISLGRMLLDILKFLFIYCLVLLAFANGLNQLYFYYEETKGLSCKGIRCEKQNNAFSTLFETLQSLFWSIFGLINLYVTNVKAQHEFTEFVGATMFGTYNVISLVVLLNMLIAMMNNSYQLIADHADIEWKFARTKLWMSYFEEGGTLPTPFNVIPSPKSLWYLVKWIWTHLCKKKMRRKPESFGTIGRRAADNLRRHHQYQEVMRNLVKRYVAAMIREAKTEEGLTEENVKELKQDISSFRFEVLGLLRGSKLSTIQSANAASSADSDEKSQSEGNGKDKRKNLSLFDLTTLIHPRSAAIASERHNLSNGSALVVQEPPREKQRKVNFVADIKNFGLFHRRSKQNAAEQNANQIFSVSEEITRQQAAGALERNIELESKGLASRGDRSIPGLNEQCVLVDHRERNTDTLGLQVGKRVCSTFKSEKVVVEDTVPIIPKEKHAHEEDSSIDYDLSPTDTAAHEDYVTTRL
Nature of the test: mouse TRPC4 channel inhibitors, dose response, cell-based, HEK293 TRPC4/mu-opioid, Fluo-4 calcium (AID 434942).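 Further: potency of inhibitors blocking the TRPC4 calcium response.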 It counts as functional.

For test [13], the target named is T6, Replicative DNA helicase DnaB (Mycobacterium tuberculosis, UniProt P9WMR3).
T6 sequence (P9WMR3 whole entry): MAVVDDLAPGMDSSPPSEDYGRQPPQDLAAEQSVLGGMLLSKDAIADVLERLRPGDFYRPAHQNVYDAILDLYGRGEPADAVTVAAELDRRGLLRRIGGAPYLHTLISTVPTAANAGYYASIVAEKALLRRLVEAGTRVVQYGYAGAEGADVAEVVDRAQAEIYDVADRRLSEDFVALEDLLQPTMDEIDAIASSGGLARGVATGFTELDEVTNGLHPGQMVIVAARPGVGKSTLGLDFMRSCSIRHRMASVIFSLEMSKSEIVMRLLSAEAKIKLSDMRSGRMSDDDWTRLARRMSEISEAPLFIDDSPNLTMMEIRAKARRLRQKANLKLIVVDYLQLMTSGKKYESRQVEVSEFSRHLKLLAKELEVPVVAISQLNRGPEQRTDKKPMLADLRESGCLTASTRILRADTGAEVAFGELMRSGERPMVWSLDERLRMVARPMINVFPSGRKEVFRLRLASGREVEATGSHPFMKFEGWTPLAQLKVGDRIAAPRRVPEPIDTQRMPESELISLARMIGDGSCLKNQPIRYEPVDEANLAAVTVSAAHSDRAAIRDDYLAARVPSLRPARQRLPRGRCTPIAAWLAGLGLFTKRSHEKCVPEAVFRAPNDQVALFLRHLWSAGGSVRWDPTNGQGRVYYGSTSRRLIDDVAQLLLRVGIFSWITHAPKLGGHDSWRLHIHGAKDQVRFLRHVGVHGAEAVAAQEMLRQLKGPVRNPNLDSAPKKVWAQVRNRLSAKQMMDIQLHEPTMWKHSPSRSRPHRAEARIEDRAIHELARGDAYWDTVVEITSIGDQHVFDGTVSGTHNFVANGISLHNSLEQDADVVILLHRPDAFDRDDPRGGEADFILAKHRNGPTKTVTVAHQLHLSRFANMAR
Description: DnaB intein splicing inhibitors, dose response, biochemical, cell-free fluorescence (AID 449749). It counts as functional.

The target in test [14] is T7, Protein RecA (Mycobacterium tuberculosis, UniProt P9WHJ3).
T7 sequence (P9WHJ3 whole entry): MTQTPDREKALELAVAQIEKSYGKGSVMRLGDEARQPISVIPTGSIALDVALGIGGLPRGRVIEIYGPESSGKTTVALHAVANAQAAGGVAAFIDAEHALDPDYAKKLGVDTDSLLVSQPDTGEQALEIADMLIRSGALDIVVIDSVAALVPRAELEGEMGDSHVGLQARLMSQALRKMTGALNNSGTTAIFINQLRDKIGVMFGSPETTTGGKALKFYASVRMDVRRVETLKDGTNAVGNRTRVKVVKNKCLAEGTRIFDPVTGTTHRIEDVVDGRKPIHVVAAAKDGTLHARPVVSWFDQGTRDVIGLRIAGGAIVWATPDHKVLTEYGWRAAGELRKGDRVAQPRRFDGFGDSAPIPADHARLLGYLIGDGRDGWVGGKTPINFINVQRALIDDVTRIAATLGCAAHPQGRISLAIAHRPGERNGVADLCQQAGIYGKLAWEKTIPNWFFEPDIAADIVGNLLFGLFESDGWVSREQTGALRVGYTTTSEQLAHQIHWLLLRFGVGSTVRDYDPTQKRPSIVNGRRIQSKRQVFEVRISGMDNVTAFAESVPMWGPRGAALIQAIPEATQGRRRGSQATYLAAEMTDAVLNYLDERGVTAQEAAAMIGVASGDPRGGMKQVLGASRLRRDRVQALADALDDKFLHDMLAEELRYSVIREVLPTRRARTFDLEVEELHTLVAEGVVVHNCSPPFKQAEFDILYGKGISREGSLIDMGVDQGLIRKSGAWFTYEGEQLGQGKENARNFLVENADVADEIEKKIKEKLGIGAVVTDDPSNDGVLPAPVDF
Description: Fluorescence Cell-Free Homogeneous Dose Retest to Identify Inhibitors of RecA-Intein Splicing Activity. [Related pubchem assays (depositor defined):AID2097, AID2223, AID489010, AID492950]. It counts as functional.

Activity calls are given as the source filed them. A value given as a limit tells only on which side of the number the result lay.

In general, EC50 refers to the concentration at which the effect is half-maximal. As usually defined, the AC50 is the midpoint of the concentration-response curve, whichever way the signal moves.

Sequence of Induced myeloid leukemia cell differentiation protein Mcl-1 (Q07820 whole entry): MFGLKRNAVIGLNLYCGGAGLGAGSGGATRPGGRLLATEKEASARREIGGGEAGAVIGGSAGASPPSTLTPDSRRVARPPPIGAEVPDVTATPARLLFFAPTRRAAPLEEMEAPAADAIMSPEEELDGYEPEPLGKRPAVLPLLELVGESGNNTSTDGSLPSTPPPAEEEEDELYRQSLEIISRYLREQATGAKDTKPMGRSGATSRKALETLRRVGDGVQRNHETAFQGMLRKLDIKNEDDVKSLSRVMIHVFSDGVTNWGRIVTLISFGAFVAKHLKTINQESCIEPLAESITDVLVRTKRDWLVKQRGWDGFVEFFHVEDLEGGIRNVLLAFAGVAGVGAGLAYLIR
T2 sequence (P11940 whole entry): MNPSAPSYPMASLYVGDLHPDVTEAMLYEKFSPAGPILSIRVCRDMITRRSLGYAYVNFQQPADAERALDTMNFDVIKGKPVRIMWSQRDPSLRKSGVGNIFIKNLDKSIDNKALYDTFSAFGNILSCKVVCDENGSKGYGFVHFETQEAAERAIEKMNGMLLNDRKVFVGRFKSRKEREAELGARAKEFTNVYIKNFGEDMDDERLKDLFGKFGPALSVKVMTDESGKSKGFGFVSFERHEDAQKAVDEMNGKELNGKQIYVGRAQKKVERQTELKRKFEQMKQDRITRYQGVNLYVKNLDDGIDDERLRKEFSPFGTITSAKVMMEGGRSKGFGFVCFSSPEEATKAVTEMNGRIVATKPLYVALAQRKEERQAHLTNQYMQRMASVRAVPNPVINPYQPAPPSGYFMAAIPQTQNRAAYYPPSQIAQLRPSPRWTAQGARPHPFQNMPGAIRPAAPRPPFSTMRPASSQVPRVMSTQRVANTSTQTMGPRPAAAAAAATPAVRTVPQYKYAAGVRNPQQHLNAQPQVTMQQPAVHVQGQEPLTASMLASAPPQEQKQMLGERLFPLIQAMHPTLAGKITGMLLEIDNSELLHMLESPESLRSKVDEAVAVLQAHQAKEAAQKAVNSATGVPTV
Sequence of Large T antigen (P03070 whole entry): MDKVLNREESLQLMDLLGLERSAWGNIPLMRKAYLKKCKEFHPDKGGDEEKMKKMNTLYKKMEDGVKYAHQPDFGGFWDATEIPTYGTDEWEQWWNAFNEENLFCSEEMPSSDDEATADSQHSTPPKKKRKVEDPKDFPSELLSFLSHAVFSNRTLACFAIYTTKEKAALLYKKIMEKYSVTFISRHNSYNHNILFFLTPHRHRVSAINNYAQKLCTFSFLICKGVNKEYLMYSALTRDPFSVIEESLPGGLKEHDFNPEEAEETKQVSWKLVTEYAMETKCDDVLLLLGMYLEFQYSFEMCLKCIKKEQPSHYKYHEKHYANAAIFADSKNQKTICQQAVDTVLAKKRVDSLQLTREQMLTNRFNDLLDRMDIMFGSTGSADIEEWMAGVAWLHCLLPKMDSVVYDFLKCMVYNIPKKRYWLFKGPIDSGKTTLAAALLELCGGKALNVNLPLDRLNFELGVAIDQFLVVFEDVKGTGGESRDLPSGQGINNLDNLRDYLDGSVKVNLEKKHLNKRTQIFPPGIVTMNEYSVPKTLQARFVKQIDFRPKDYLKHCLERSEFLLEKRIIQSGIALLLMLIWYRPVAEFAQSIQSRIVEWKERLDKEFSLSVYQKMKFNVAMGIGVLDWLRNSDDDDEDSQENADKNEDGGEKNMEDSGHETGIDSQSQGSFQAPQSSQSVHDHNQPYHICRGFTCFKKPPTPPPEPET
Sequence of Glyceraldehyde-3-phosphate dehydrogenase (P04406 whole entry): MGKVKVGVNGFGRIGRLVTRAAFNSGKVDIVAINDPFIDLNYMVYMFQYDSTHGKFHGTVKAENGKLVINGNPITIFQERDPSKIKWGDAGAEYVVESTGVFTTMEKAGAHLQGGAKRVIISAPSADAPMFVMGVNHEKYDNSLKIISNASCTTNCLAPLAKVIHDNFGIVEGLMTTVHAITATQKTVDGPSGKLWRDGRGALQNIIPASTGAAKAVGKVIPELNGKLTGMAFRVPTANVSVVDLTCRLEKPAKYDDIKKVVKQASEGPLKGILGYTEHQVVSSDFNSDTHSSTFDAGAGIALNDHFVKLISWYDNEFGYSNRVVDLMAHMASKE

As to `Nc1nnc(S)n1N=C1C(=O)Nc2ccccc21`, the IC50 in test [1] is 7.65 µM (active); in test [2], 30 µM (active); in test [3], 4.84 µM (active); in [4], > 66 µM (inactive); in [5], > 66 µM (inactive); in [6] it was 57.4 µM (active).

With `O=C(NCCO)c1cc(-c2ccc(F)cc2F)n[nH]1`, the IC50 in test [7] was > 10 µM (inconclusive).

For the compound `CC(=O)NNC(=O)c1sc(=S)n2c1[nH]c(=O)c1sccc12`, the results for the IC50 in test [8], in [2] and in test [3] were 11.6 µM (active), > 50 µM (not active) and > 50 µM (not active), respectively.

As for `COc1ccccc1/C=C1/SC(=O)N(CCC(=O)Nc2ccc(S(=O)(=O)Nc3nccs3)cc2)C1=O`, the IC50 in test [9] was 2.69 µM (active).

As for `CCCOc1ccc(Cc2nn3c(=O)/c(=C/c4ccco4)sc3nc2=O)cc1`, the IC50 in test [9] is recorded as 8.96 µM (not active).

`Cc1[nH]n(-c2ccccc2)c(=O)c1/C=C1/C(=O)NN(c2ccc(F)c(Cl)c2)C1=O`: the EC50 was 4.06 µM (active) in test [10], 7.24 µM (active) in [11], 5.31 µM (active) in [12] and 12 µM (active) in test [14]. Further, the IC50 in test [9] was 5.78 µM (active). The AC50 in [13] is 4.54 µM (active).

As to `Oc1ccc(/C=N/Nc2ccnc3cc(Cl)ccc23)c(O)c1`, in test [9], the IC50 was 6.73 µM (active).
